Experimental data as given in article PMC6934184, “Selective DNA-PKcs inhibition extends the therapeutic index of localized radiotherapy and chemotherapy” (The Journal of Clinical Investigation, 2019).

Molecular target: T1, FRAP1 (mTOR) (Homo sapiens, UniProt P42345)
T1 construct: purchased Thermo Fisher Scientific (Life Technologies) SelectScreen
Assay: SelectScreen Z'LYTE
Format: biochemical
In short: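 Compound tested in SelectScreen activity assays, Z'LYTE for CSF1R, CDK1/cyclin B and MAP2K6 and Adapta for CAMK1. ATP for CAMK1 was listed as 10, and Km app was used for CSF1R. Results are expressed in percent.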

## CN(C(=O)CN1CCOCC1)c1ccc2sc3c(-c4cccc5c(=O)cc(N6CC7CCC(C6)O7)oc45)cccc3c2c1 [NU5455]
  inhibition at 1 µM: 5.7%
